Source: ChEMBL document CHEMBL2163313, “Shape-based reprofiling of FDA-approved drugs for the H₁ histamine receptor” (J Med Chem, 2012)
Active and inactive are the calls of the source. The rule behind the calls is not given here.

Key:
HeLa = experiment: Antagonist activity at P2Y receptor in human HeLa cells assessed as inhibition of ATP-induced Ca2+ release at 100 uM by using fura-2AM-based fluorescence assay; type: functional, cell-based
Histamine H1 receptor [1] = target: T1, Histamine H1 receptor (Homo sapiens, UniProt P35367); experiment: Antagonist activity at histamine H1 receptor in human HeLa cells assessed as inhibition of histamine-induced Ca2+ release at 100 uM by using fura-2AM-based fluorescence assay; type: functional, cell-based
Histamine H1 receptor [2] = target: T1, Histamine H1 receptor; experiment: Antagonist activity at H1 receptor in human HeLa cells assessed as inhibition of histamine-induced Ca2+ release by using fura-2AM-based fluorescence assay; type: functional, cell-based
Histamine H1 receptor [3] = target: Histamine H1 receptor (Rattus norvegicus, UniProt P31390); type: cell membranes, Sprague-Dawley, Brain, Membrane
Histamine H1 receptor (Rattus norvegicus, UniProt P31390), sequence (P31390 whole entry): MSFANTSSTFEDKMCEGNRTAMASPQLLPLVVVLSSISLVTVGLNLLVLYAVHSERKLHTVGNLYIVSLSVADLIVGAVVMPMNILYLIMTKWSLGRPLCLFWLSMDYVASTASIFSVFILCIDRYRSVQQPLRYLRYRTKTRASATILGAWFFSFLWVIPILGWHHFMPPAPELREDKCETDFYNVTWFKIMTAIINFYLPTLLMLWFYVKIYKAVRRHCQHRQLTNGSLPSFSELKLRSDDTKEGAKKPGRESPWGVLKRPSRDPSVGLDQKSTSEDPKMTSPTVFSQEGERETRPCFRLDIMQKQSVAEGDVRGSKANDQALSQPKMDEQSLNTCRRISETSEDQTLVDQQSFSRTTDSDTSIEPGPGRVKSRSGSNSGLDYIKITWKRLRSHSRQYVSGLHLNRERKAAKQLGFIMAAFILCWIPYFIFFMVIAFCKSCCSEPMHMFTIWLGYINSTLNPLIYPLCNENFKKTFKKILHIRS

T1 sequence (P35367 whole entry): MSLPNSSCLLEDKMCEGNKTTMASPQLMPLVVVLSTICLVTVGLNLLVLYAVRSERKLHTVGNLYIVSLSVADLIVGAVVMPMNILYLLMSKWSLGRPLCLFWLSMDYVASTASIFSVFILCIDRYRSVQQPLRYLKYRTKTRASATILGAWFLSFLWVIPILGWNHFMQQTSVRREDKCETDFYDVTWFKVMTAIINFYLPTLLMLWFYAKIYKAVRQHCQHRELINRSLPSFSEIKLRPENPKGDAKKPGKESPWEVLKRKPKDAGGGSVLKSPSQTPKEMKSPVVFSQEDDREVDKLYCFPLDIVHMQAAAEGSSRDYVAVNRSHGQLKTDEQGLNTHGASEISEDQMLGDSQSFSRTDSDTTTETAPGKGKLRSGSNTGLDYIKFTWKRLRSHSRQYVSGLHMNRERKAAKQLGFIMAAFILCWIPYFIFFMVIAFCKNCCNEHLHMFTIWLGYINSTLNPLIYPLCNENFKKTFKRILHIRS

Row | Compound | inhibition (HeLa) | inhibition (Histamine H1 receptor [1]) | IC50 (Histamine H1 receptor [2]) | IC50 (Histamine H1 receptor [3])
1 | NC(=O)OCC(COC(N)=O)c1ccccc1 | inactive |  |  | 
2 | OC(CCN1CCCCC1)(c1ccccc1)C1CC2C=CC1C2 (centres undefined) | Active | Active |  | 
3 | CCN(CC)CCOC(=O)C(c1ccccc1)c1ccccc1 [ADIPHENINE] |  |  | 112 µM | 17 µM
4 | CN(C)CC/C=C1/c2ccccc2Sc2ccc(Cl)cc21 [CHLORPROTHIXENE] |  |  |  | 0.00107 µM
5 | CN1[C@@H](CC(=O)c2ccccc2)CCC[C@H]1C[C@H](O)c1ccccc1 [LOBELINE] |  |  | 44.7 µM | 11.2 µM
6 | OC(CCN1CCCC1)(c1ccccc1)C1CCCCC1 (centres undefined) [PROCYCLIDINE] |  |  |  | 6.76 µM
